Reference: publication PMC11040352, “CD38‐Specific Gallium‐68 Labeled Peptide Radiotracer Enables Pharmacodynamic Monitoring in Multiple Myeloma with PET” (Advanced Science, 2024)

Assays:
[1] = target: T1, recombinant human CD38 protein (Homo sapiens, UniProt P28907); assay: Affinity measurement by surface plasmon resonance (SPR), human CD38; type: binding
T1 construct: purchased R&D systems 2404-AC
Protocol: The affinity of AJ206 for hCD38 and mCD38 recombinant proteins were evaluated by SPR. The experiments were conducted using a Biacore T200 instrument with a CM5 chip at 25 °C. The ligands used were His‐Tagged human CD38 (R&D systems, catalog # 2404‐AC, 43 kDa, 0.5 mg mL^−1 stock concentration) and mouse CD38 proteins (R&D systems, catalog # 4947‐AC, 40 kDa, 1.81 mg mL^−1 stock concentration), which were immobilized onto the CM5 chip. AJ206 (2089.2 Da, 10 × 10^−3 M stock concentration) was used as the analyte, which flowed over the ligand immobilized surface. FC2 was used as the experimental flow cell, while FC1 served as the reference. Anti‐His antibody (1 mg mL^−1 stock concentration) was immobilized on both FC1 and FC2 using standard amine coupling chemistry. The immobilization running buffer used was PBS‐P (20 × 10^−3 M phosphate buffer pH 7.4, 137 × 10^−3 M NaCl, 2.7 × 10^−3 M KCl, 0.05% v/v surfactant P20). Human CD38 was captured onto FC2 at a level of ≈860 RU, with a 1:20 dilution and 25 µg mL^−1 diluted concentration in PBS‐P. Mouse CD38 was captured onto FC4 at a level of 1360 RU, with a 1:50 dilution and 36.2 µg mL^−1 diluted concentration in PBS‐P. The theoretical R max values were calculated based on the captured response values and are presented in Table 2 , assuming a 1:1 interaction mechanism. […]

PDX tumors = assay: PET imaging of patient‐derived xenografts (PDXs), incl. before and after ATRA; type: in vivo, NSG mice; conditions: PDX mice, oral ATRA 500 µg per day for 3 d, compared to pre‐treatment
Protocol: To establish PDX models, immune‐deficient NSG male mice (NOD/Shi‐scid IL‐2rgnull), aged 6–8 weeks, were employed after being irradiated at an absorbed dose of 200 cGy. PCL cells, sourced from two patients and anonymized, were obtained from Dr. Gocke's laboratory. Under sterile conditions, the cells were thawed and treated with DNAse at a concentration of 20 µg mL^−1. After cell counting, 30 000 cells were subjected to flow cytometry analysis to assess CD38 expression. The remaining cells were subcutaneously inoculated at a concentration of 5 × 10^6 cells in 100 µL of a solution comprising 60% Matrigel Basement Matrix (Corning 356230) diluted with HBSS. The animals were included in the experiments once the PDX volumes reached tumor volumes of 100–200 mm^3.
Mice bearing flank tumors and disseminated disease were injected intravenously with [^68Ga]Ga‐AJ206 and PET images were acquired 60 min after injection of the radiotracer. […] PET images were quantified by drawing ROI on tissues using Amide 1.0.6 and reported as %ID/cc.
To assess the pharmacodynamics of ATRA‐induced CD38 expression in vivo, mice bearing PDX tumors (n = 6) were subjected to image using [^68Ga]Ga‐AJ206 to quantify CD38 expression prior to treatment. […] All images were analyzed using AMIDE software with standard ROI analysis techniques.

[2] = system: MM cell lines (U266, RPMI8226, MM1S, and MOLP8); assay: ATRA treatment, in vitro uptake of [^68Ga]Ga‐AJ206; type: cell-based, human; conditions: ATRA treated cells compared to control treatment
Protocol: In vitro binding assays were conducted to determine the binding of [^68Ga]Ga‐AJ206 to U266, RPMI8226, MM1S, and MOLP8 cells. Approximately 1 µCi of [^68Ga]Ga‐AJ206 was incubated with 1 × 10^6 cells in 100 µL of culture media for 60 min at 4 °C. After incubation, cells were washed three times with ice‐cold PBS containing 0.1% tween‐20 and counted on an automated gamma counter (1282 Compugamma CS, Pharmacia/LKB Nuclear, Inc., Gaithersburg, MD). […] All cellular uptake studies were performed in quadruplicate for each cell line and repeated three times.
To evaluate the pharmacodynamic effects of ATRA therapy on MM cells, U266, RPMI8226, MM1S, and MOLP8 cells were seeded at a concentration of 0.5 million in 500 µL per well in triplicates in a six‐well plate. A 200 × 10^−9 M working solution of all‐trans retinoic acid (ATRA, Sigma‐Aldrich #554720) was prepared by diluting in culture media. Next, 500 µL of the working solution was added to each well, and the cells were incubated for 48 h at 37 °C in a 5% CO2 atmosphere. After incubation, cells were transferred to FACS tubes, medium was removed by centrifugation, and the cells were resuspended in FACS buffer for flow cytometry and in vitro binding studies, following the same protocol as previously described.

[3] = system: MM cell lines (U266, RPMI8226, MM1S, and MOLP8); assay: ATRA treatment, flow cytometry of CD38 surface expression; type: cell-based, human; conditions: four MM cell lines, ATRA 48 h
Protocol: To evaluate CD38 surface expression, cells (1 × 10^6) were stained with PE‐labelled anti‐human CD38 monoclonal antibody (clone HB‐7, BioLegend Cat # 356604) in FACS buffer (0.5% FBS with 2 mM EDTA) for 30 min on ice. After washing and resuspending in FACS buffer, data were acquired on a BD Accuri C6 plus flow cytometer and analyzed using FlowJo software. Receptor density measurements were performed using Quantibrite Beads (BD Biosciences, cat #340495), which contain four levels of phycoerythrin (PE) per bead. Gates were drawn on low, medium low, medium high, and high PE binding beads, and the geometric mean from these populations was correlated with the lot‐specific PE molecule/bead on a logarithmic scale. This correlation was used to translate cell population geometric mean to receptor/cell for the respective cell type. To evaluate the pharmacodynamic effects of ATRA therapy on MM cells, U266, RPMI8226, MM1S, and MOLP8 cells were seeded at a concentration of 0.5 million in 500 µL per well in triplicates in a six‐well plate. A 200 × 10^−9 M working solution of all‐trans retinoic acid (ATRA, Sigma‐Aldrich #554720) was prepared by diluting in culture media. Next, 500 µL of the working solution was added to each well, and the cells were incubated for 48 h at 37 °C in a 5% CO2 atmosphere. […]

T1 sequence (P28907 whole entry): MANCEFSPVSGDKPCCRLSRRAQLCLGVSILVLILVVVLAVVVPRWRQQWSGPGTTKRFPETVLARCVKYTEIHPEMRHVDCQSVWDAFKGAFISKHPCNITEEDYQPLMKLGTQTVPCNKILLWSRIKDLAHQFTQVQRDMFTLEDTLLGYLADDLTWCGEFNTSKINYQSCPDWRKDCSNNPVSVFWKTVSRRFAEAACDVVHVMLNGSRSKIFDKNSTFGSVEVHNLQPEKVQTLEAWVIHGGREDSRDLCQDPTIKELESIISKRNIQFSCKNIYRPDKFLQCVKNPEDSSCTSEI

Structure (SMILES) | Kd ([1]; hCD38, read-out: dissociation constant (K D)) [nM] | koff ([1]; recombinant human CD38, mean ± SEM (n = 2), read-out: Koff (1/s) x10^-4) [s⁻¹] | change of [^68Ga]Ga‐AJ206 radioactivity uptake in tumors (PET) (PDX tumors) | change of [^68Ga]Ga‐AJ206 radioactivity uptake in treated cells [2] | change of CD38 expression [3]
CC[C@H](C)[C@@H]1NC(=O)[C@@H]2CCCN2C(=O)[C@H](Cc2ccccc2)NC(=O)[C@H](CC(=O)O)NC(=O)[C@H](C)NC(=O)[C@@H]2CSCc3cc(cc(c3)CSC[C@H](NC(=O)[C@H](C)NC(=O)CCOCCOCCOCCNC(=O)CN3CCN(CC(=O)O)CCN(CC(=O)O)CC3)C(=O)N[C@@H](C(C)C)C(=O)N3CCC[C@H]3C(=O)N2)CSC[C@@H](C(N)=O)NC(=O)[C@H](Cc2ccc(O)cc2)NC(=O)[C@H](Cc2c[nH]c3ccccc23)NC1=O [AJ206] | 19.1 ± 0.99 | 0.0006 ± 0.000121 | – | – | –
CC1=C(/C=C/C(C)=C/C=C/C(C)=C/C(=O)O)C(C)(C)CCC1 [ATRA, all‐trans retinoic acid] | – | – | significant increase | significant increase | increased CD38 expression
